Active and inactive are the calls of the source. No cut-off for these calls is given here.
Legend:
HT-29 [1] = assay: Anti-necroptotic activity in TSZ induced human HT-29 cells assessed as increase in cell viability pretreated with compound followed by TSZ stimulation and measured after 16 hrs by celltiter-glo luminescent cell viability assay; assay type: functional, cell-based
[2] = Cytotoxicity against human HT-29 cells assessed as reduction in cell viability by celltiter-glo luminescent cell viability assay; assay type: toxicity, cell-based
[3] = target: T1, Receptor-interacting serine/threonine-protein kinase 1 (Homo sapiens, UniProt Q13546); assay: Binding affinity to recombinant human wild type partial length RIPK1 (M1 to K305 residues) expressed in bacterial expression system by KINOMEscan TM assay
T1 sequence (Q13546 whole entry): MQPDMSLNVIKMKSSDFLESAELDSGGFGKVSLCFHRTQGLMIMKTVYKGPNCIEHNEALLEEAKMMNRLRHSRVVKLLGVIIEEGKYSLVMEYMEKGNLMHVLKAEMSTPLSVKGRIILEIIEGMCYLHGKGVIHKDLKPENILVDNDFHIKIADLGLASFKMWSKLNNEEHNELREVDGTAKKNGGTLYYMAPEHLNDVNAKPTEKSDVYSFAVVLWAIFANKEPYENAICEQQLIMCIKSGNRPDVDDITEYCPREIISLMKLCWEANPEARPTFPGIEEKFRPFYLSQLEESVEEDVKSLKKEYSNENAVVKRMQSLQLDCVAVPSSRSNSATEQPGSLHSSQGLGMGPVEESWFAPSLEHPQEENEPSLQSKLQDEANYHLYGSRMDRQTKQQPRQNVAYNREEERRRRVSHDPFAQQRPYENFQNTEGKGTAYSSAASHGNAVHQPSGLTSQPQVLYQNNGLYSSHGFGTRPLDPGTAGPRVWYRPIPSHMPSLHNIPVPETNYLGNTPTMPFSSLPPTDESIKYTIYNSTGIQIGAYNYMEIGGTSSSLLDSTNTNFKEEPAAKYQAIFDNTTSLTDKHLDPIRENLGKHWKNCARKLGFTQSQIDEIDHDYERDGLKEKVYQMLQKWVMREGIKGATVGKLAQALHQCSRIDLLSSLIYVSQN

[4] = target: T2, Receptor-interacting serine/threonine-protein kinase 3 (Homo sapiens, UniProt Q9Y572); assay: Binding affinity to recombinant human wild type partial length RIPK3 (M1 to Q307 residues) expressed in bacterial expression system by KINOMEscan TM assay
Target sequence in this assay (Q9Y572 whole entry, the tested form may be a part): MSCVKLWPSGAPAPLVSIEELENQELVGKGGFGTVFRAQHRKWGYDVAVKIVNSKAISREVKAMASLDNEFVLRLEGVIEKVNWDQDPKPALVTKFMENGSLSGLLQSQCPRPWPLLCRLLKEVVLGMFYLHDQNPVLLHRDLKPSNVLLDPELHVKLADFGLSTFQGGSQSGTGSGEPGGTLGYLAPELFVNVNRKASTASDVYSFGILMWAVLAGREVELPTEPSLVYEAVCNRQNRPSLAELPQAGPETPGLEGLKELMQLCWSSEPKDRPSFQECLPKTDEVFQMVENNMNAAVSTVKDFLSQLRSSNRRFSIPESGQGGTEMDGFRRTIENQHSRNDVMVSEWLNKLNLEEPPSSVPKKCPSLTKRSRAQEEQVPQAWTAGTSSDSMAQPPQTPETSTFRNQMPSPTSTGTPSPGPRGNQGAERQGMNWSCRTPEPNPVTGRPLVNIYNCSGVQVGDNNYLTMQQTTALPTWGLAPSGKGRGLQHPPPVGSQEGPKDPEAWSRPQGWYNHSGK

[5] = target: T3, Receptor-interacting serine/threonine-protein kinase 1 (Homo sapiens) (UniProt Q13546); assay: Inhibition of RIPK1 in human HT-29 cells assessed as reduction in TSZ induced necroptosis at 25 to 50 nM pretreated with compound followed by TSZ stimulation for 8 hrs by celltiter-glo luminescent cell viability assay relative to control; assay type: cell-based; details: dose 25-50 nM
T3 sequence (whole entry): T1 sequence (Q13546 whole entry)

[6] = target: T3, Receptor-interacting serine/threonine-protein kinase 1 (Homo sapiens); assay: Inhibition of RIPK1 in human HT-29 cells assessed as reduction in TSZ induced necroptosis pretreated with compound followed by TSZ stimulation for 8 hrs by celltiter-glo luminescent cell viability assay; assay type: cell-based; details: dose 0.4-50 nM, DDE = dose-dependent effect
[7] = target: T3, Receptor-interacting serine/threonine-protein kinase 1 (Homo sapiens); assay: Inhibition of RIPK1 in human HT-29 cells assessed as reduction in TCZ induced necroptosis at 0.2 to 25 nM pretreated with compound followed by TCZ stimulation for 16 hrs by celltiter-glo luminescent cell viability assay; assay type: cell-based; details: dose 0.2-25 nM
[8] = target: T4, Receptor-interacting serine/threonine-protein kinase 1 (Mus musculus) (UniProt Q60855); assay: Inhibition of RIPK1 in mouse L929 cells assessed as reduction in TZ induced necroptosis pretreated with compound followed by TZ stimulation for 4 hrs by celltiter-glo luminescent cell viability assay; assay type: cell-based; details: dose 0.000781-0.025 µM, DDE = dose-dependent effect
T4 sequence (whole entry): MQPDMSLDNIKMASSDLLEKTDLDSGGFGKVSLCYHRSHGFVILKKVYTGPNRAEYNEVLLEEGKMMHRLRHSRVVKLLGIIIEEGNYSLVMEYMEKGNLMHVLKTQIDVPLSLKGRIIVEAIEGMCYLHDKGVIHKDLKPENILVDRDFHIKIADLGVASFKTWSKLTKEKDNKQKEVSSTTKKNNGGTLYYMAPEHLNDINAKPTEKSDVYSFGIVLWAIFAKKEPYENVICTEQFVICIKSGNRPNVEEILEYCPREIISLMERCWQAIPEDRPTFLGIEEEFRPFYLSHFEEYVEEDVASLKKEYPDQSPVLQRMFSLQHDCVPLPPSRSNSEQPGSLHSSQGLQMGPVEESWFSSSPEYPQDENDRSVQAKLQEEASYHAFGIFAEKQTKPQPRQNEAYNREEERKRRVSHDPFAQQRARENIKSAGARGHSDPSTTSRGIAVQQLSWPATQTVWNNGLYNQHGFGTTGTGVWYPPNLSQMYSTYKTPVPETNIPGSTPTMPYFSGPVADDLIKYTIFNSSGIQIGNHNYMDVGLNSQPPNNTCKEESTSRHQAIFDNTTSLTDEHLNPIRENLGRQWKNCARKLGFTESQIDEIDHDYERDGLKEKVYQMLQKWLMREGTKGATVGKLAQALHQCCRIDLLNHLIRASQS

HT-29 [9] = assay: Inhibition of RIPK1 expression in TSZ induced human HT-29 cells at 1 uM pretreated with compound followed by TSZ stimulation upto 6 hrs by immunoblotting analysis; assay type: functional, cell-based
[10] = target: T3, Receptor-interacting serine/threonine-protein kinase 1 (Homo sapiens); assay: Inhibition of RIPK1 phosphorylation in TSZ induced human HT-29 cells at 1 uM pretreated with compound followed by TSZ stimulation upto 6 hrs by immunoblotting analysis relative to control; assay type: cell-based
[11] = target: T2, Receptor-interacting serine/threonine-protein kinase 3; assay: Inhibition of RIPK3 phosphorylation in TSZ induced human HT-29 cells at 1 uM pretreated with compound followed by TSZ stimulation upto 6 hrs by immunoblotting analysis; assay type: cell-based
Target sequence in this assay (Q9Y572 whole entry, looked up, the tested form may be a part): as the sequence (Q9Y572 whole entry, the tested form may be a part) above

[12] = target: T5, Mixed lineage kinase domain-like protein (Homo sapiens) (UniProt Q8NB16); assay: Inhibition of MLKL phosphorylation in TSZ induced human HT-29 cells at 1 uM pretreated with compound followed by TSZ stimulation upto 6 hrs by immunoblotting analysis; assay type: cell-based
T5 sequence (whole entry): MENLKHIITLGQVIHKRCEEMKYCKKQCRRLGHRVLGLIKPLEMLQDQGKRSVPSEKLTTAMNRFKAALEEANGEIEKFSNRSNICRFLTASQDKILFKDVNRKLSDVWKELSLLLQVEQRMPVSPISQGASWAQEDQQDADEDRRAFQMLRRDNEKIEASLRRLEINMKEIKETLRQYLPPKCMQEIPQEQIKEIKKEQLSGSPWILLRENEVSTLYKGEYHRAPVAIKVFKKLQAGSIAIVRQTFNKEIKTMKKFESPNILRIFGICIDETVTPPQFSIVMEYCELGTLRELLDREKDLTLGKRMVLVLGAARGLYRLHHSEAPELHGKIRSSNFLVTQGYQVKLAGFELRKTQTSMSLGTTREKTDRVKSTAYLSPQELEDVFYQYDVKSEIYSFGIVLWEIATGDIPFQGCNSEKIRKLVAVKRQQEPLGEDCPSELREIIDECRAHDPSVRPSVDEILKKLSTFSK

HT-29 [13] = assay: Inhibition of TSZ induced RIPK1-RIPK3 necrosome formation in human HT-29 cells at 1 uM measured after 6 hrs by immunoblot analysis; assay type: functional, cell-based
Mus musculus [14] = assay: Anti-necroptosis activity against TNFalpha-induced C57BL/6 mouse model of systemic inflammatory response syndrome assessed as protection against hypothermia at 20 to 40 mg/kg, IG pretreated for 1 hr followed by TNFalpha stimulation relative to control; assay type: functional; details: dose 20-40 mg/kg
Mus musculus [15] = assay: Anti-necroptosis activity against TNFalpha-induced C57BL/6 mouse model of systemic inflammatory response syndrome assessed as reduction in IL-1 beta level administered IG pretreated for 1 hr followed by TNFalpha stimulation for 2 hrs; assay type: functional, organism-based; details: dose 10-40 mg/kg, time 3.0 hrs, DDE = dose-dependent effect
Mus musculus [16] = assay: Anti-necroptosis activity against TNFalpha-induced C57BL/6 mouse model of systemic inflammatory response syndrome assessed as reduction in IL-6 level administered IG pretreated for 1 hr followed by TNFalpha stimulation for 2 hrs; assay type: functional, organism-based; details: dose 10-40 mg/kg, time 3.0 hrs, DDE = dose-dependent effect
Mus musculus [17] = assay: Antialzheimer activity against STZ induced C57BL/6 mouse model of cognitive dysfunction assessed as increase in central distance of mouse at 1 mg/kg, IG administered once daily for 7 days; assay type: functional, organism-based; details: time 7.0 day
Mus musculus [18] = assay: Antialzheimer activity against STZ induced C57BL/6 mouse model of cognitive dysfunction assessed as prolonged exploration time for new objects at 1 mg/kg, IG administered once daily for 7 days by novel object recognition test; assay type: functional, organism-based; details: time 7.0 day
Mus musculus [19] = assay: Antialzheimer activity against STZ induced C57BL/6 mouse model of cognitive dysfunction assessed as increase in preference index at 1 mg/kg, IG administered once daily for 7 days by novel object recognition test; assay type: functional, organism-based; details: time 7.0 day
Mus musculus [20] = assay: Antialzheimer activity against STZ induced C57BL/6 mouse model of cognitive dysfunction assessed as increase in number of active avoidance time at 1 mg/kg, IG administered once daily and measured for 4 days by active avoidance test; assay type: functional, organism-based; details: time 4.0 day

Kd [3]: 8.6 nM | Kd [4]: > 5000 nM | inhibition [10]: 100% | inhibition [11]: Active | inhibition [12]: Active
Compound: O=C1CC(C(=O)Nc2nc3cc(Oc4ccc(F)c(NC(=O)Cc5cccc(OC(F)(F)F)c5)c4)c(F)cc3s2)C1
EC50 (HT-29 [1]): 2 nM | CC50 [2]: > 50000 nM | inhibition [5]: 100% | inhibition [6]: Dde | inhibition [7]: Active | Activity [8]: Dde | inhibition (HT-29 [9]): Active | inhibition (HT-29 [13]): Active | Activity (Mus musculus [14]): 100% | Activity (Mus musculus [15]): Dde | Activity (Mus musculus [16]): Dde | Activity (Mus musculus [17]): Active | Activity (Mus musculus [18]): Active | Activity (Mus musculus [19]): Active | Activity (Mus musculus [20]): Active
